Experimental data as given in US6506901B2, “Substituted 2-(S)-hydroxy-3-(piperidin-4-yl-methylamino)-propyl ethers and substituted 2-aryl-2-(R)-hydroxy-1-(piperidin-4-yl-methyl)-ethylamine β-3 adrenergic receptor agonists” (Wyeth, priority 2000, dated 2003).
Structures can show the parent of a compound that is named as a salt.

How the values were obtained:
β3 human transgenic mice = assay: Thermogenesis (Oxymax indirect calorimeter) in β3 transgenic (Tg) mice; format: in vivo, mice (FVB); settings: Mus musculus, ip, mouse type homo; IP 10 mg/kg; percent increase in thermogenesis over baseline
Text: Evaluation in β3 Knockout(KO) and β3 Transgenic(Tg) Mice: The ability of compounds of this invention to treat or inhibit disorders related to insulin resistance or hyperglycemia was also confirmed with representative compounds of this invention in an in vivo standard pharmacological test procedure which compared thermogenesis in transgenic mice (Tg mice) and β3-knockout mice (KO mice).
β3-Adrenergic receptor knockout mice and β3 human transgenic mice are created on an inbred FVB background (Susulic, V. S., et.al., J. Biol. Chem., 1995, 270 (49), 29483-29492). Female FVB β3 transgenic and β3 knockout mice were used to determine in vivo activity and selectivity of β3 agonists. […] These compounds were also selective in being 100-fold less responsive and partial agonists when tested in β1 and β2 transfected CHO cells. Compounds were tested for increased thermogenesis using the Oxymax indirect calorimeter (Columbus Instruments, Columbus, Ohio). Fed animals were placed in chambers for 3 hours to obtain baseline O2 and CO2 values. Eight fed mice were weighed in pairs and placed in 4 chambers, two per chamber. The relative gas content of each chamber was sampled and recorded at 10 to 12 minute intervals. For each sample, energy expenditure values were calculated by the Oxymax and expressed as kcal/hr. After 3 hours of baseline measurement, the mice were removed, treated and replaced in the chambers. The β3 agonists were injected at doses between 0.1 and 20 mg/kg i.p. and between 1.0 and 30 mg/kg for oral administration. Compounds in 10 mM or 10 mg/ml DMSO solutions were suspended in 0.5% methylcellulose: 0.1% tween-80 and injected i.p. or administered by oral gavage. Some compounds were suspended in 5.0% tween-80 for oral administration. Post-treatment kcal/hr values were taken between 40 minutes and 2.5 hours later. The 6 to 10 sample sections of the pre-treatment and post-treatment periods, which appear to best represent stable resting thermogenesis, were selected. Each of these sample values was corrected for body weight and used such that each pair of mice serves as its own baseline for both T test and percent increase in thermogenesis calculations. An ANOVA and a one sided T test (H1: Post>Pre) are performed using the SAS software modified to down weight extreme values. In a separate set of calculations, values that appear to be too high to represent resting thermogenesis are discarded (activity monitor sampling associated spikes in thermogenesis with ambulatory activity). The mean baseline value for each chamber is subtracted from mean post-treatment value for that chamber. This baseline-subtracted value is divided by the mean baseline value and multiplied by 100 to obtain a percent increase in thermogenesis for each chamber. The combined mean percent increase, standard deviation, and standard error of the mean for each chamber is calculated. Compounds were considered active if they were able to produce a statistically significant 15% increase in thermogenesis in β3 transgenic mice and no significant increase in β3 knockout mice.

human β3 receptors = target: T1, human β3 receptors (Homo sapiens, UniProt P13945); assay: cAMP response (SPA) in CHO cells expressing cloned human β3 adrenergic receptor; format: cell-based; settings: for EC50: CHO cells expressing human β3 receptor, cAMP, 30 min incubation, 10^−9 M to 10^−5 M; for IA(β3): maximal response compared to the maximal response of isoproterenol at 10^−5 M
T1 construct: Full length β3 AR clones (402 amino acids) containing the last 6 amino acids of hβ3—AR; expressed in transfected cells; host or cells: CHO cells
T1 sequence (P13945 whole entry): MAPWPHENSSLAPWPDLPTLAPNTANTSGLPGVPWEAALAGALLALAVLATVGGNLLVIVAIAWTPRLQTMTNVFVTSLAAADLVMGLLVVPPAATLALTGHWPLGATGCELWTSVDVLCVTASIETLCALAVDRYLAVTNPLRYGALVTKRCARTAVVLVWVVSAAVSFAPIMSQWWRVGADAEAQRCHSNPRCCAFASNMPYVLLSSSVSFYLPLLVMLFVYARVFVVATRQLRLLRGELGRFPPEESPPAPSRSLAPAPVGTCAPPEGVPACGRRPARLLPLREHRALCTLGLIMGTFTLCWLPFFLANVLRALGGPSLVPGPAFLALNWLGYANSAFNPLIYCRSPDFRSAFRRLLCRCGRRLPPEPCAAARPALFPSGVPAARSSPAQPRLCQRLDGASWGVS
Summary of the method: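 CHO cells transfected with cloned human β3-AR were incubated with compound at 37° C for 30 min, stopped with 0.2N HCl and neutralized. cAMP was measured by SPA. Activity is expressed as per cent of the maximal isoproterenol (10^−5 M) response.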

SMILES	melting point	EC50 (human β3 receptors)	IA(β3) (human β3 receptors)	change in vivo at 10 mg/kg (β3 human transgenic mice)
O=C(Nc1ccc(S(=O)(=O)N2CCC(CNC[C@H](O)COc3ccc(O)cc3)CC2)cc1)Nc1ccccn1 [Example 66, 1-[4-(4-{[(2S)-2-Hydroxy-3-(4-hydroxy-phenoxy)-proplamino]-methyl}-piperidine-1-sulfonyl)-phenyl]-3-pyridin-2-yl-urea]	189 °C	–	–	4%
O=S(=O)(c1ccc(-n2cccn2)cc1)N1CCC(CNC[C@H](O)COc2ccc(O)cc2)CC1 [Example 93, 4-(2-Hydroxy-3-{[1-(4-pyrazol-1-yl-benzenesulfonyl)-piperidin-4-ylmethyl]-amino}-propoxy)-phenol]	169 to 171 °C	347 nM	0.99	–
O/N=C1\c2ccccc2-c2c(OC[C@@H](O)CNCC3CCN(c4ccnc5cc(C(F)(F)F)ccc45)CC3)cccc21 (as salt: hydrochloride) [Example 4, 4-((2S)-2-Hydroxy-3-{[1-(7-trifluoromethyl-quinolin-4-yl)-piperidin-4-ylmethyl]-amino}-propoxy)-fluoren-9-one Oxime]	171 °C	–	–	–

Now from value to compound, other results behind:

melting point	EC50 (human β3 receptors)	IA(β3) (human β3 receptors)	SMILES	change in vivo at 10 mg/kg (β3 human transgenic mice)
110 °C	1240 nM	0.53	OCCCCCCCCCCCCN1CCC(CNC[C@H](O)COc2cccc3[nH]c4ccccc4c23)CC1 [Example 30, 12-(4-{[(2S)-3-(9H-Carbazol-4-yloxy)-2-hydroxy-propylamino]-methyl}-piperidin-1-yl)-dodecan-1-ol]	–
238 to 240 °C (dec.)	–	–	O=C(O)c1cccc(NC(=O)N2CCC(CNC[C@H](O)COc3cccc4[nH]c5ccccc5c34)CC2)c1 [Example 51, 3-[(4-{[(2S)-3-(9H-Carbazol-4-yloxy)-2-hydroxy-propylamino]-methyl}-piperidine-1-carbonyl)-amino]-benzoic Acid]	–
